Data set [1] addresses type IV phosphodiesterase. The data set is described as follows: Type IV phosphodiesterase inhibiting activity. It counts as biochemical, human. The following applies: U937 type IV phosphodiesterase fraction, 0.28 μM cAMP, pH 7.5, 30° C., 30 minutes; read-out: PDEIV-IC50. In outline:
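PDE4 fraction from U937 cell lysate, separated on DEAE Sepharose, incubated with compound, 0.4 μCi 3H-cAMP (0.28 μM cAMP) and 5'-nucleotidase in Tris-HCl pH 7.5 with 1 mM MgCl2 for 30 min at 30 °C. Product radioactivity counted after QAE-Sephadex removal of substrate.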

The subject of a further data set is mice. Kind of data set: Toxicity: death on intraperitoneal administration to mice for 5 weeks. Type of data set: in vivo. The following applies: 10 mg/kg per day intraperitoneally for 5 weeks. The text has this:
Further, the compounds of the present invention are low in toxicity, and these compounds are expected to be high in safety.

Data set [2] has as its system TNF-α production by LPS stimulated macrophages. The data set is described as follows: TNF-α production inhibitory activity by LPS stimulated macrophages. It counts as cell-based. The following applies: Macrophage, BALB/c mouse peritoneal macrophages, cultured for 8 hours, ELISA. The method, then: The following assay was used to evaluate the ability of the compound of the present invention to suppress TNF-α production by LPS stimulated macrophages according to Immunopharmacol. 29, 121-127 (1995).
1) 6 to 10 week old female BALB/c mice were used, 2 ml portions of thioglycolate were intraperitoneally administered, and the abdominal cavities were washed by 10 ml of PBS after 4 days, whereby 1 to 2×10^7 peritoneal cells were obtained per mouse. These were suspended in a hemocyte solution (0.75% ammonium chloride, 17 mM tris-hydrochlorate buffer, pH7.2), centrifuged, then resuspended in an RPMI1640 medium including 10% fetal calf serum and seeded in a 96-well cell culture plate at a density of 1×10^5 cells/50 μl/well. Since these cells adhered strongly to the tissue culture plate and were positive in nonspecific esterase staining, they were used for the test as mouse peritoneal macrophages. Mouse peritoneal macrophages were precultured overnight at 37° C. in […] for the experiment.
2) E. Coli (serum type 055:B5) derived LPS was dissolved in PBS in a concentration of 1 mg/ml, then sterilized by filtration. The test compound was dissolved in DMSO to make a 1000-fold concentration solution of the final concentration of use. 10 μl of the above LPS stock solution (final concentration 10 μg/ml) and 1 μl of the tested substance stock solution were added and mixed in 0.5 ml of RPMI1640 medium containing 10% fetal calf serum. This was added to the above cells at 50 μl/well and cultured for 8 hours. The cultured supernatant was recovered from each well and the TNF-α concentration was measured by the ELISA method (Cytoscreen® Immunoassay Kit Mouse TNF-α, BioSourse International).
The comparative example was the compound described in WO-A-97-04775, Example 1, mentioned above.
(ELISA stands for enzyme-linked immunosorbent assay.)

Usually IC50 stands for the point on the concentration scale where inhibition reaches its midpoint. Turning to `O=C(Nc1c(Cl)cncc1Cl)c1cn([C@H]2CC[C@H](O)CC2)c2ncccc2c1=O` [Example 117, N-(3,5-dichloropyridin-4-yl)-1-(trans-4-hydroxycyclohexyl)-1,4-dihydro[1,8]naphthylidin-4-one-3-carboxamide], the values for the IC50 in data set [1] and in data set [2] were 3.7 nM and 2 nM, respectively. Besides, the death result with mice is listed as “no death”.
Regarding `O=C(Nc1ccncc1)c1cn(C2CC2)c2ncccc2c1=O` [Example 139, N-(4-pyridyl)-1-cyclopropyl-1,4-dihydro[1,8]naphthylidin-4-one-3-carboxamide], the half-maximal inhibitory concentration (IC50) in data set [1] turned out to be 240 nM; in data set [2], 370 nM. Also, the death result in the data set with mice is given as “no death”.
In the same order, the values of `COC(=O)N1CCC(n2cc(C(=O)Nc3c(Cl)cncc3Cl)c(=O)c3cccnc32)CC1` [Example 26, N-(3,5-dichloropyridin-4-yl)-1-(1-methoxycarbonylpiperidin-4-yl)-1,4-dihydro[1,8]naphthylidin-4-one-3-carboxamide] are 0.9 nM, 0.2 nM and “no death”.
The corresponding values for `O=C(Nc1ccncc1)c1cn(N2CCOCC2)c2ncccc2c1=O` [Example 106, N-(4-pyridyl)-1-(1-morpholino)-1,4-dihydro[1,8]naphthylidin-4-one-3-carboxamide] are 140 nM, 90 nM and “no death”.
`CO[C@H]1CC[C@H](n2cc(C(=O)Nc3c(Cl)cncc3Cl)c(=O)c3cccnc32)CC1` [Example 127, N-(3,5-dichloropyridin-4-yl)-1-(trans-4-methoxycyclohexyl)-1,4-dihydro[1,8]naphthylidin-4-one-3-carboxamide]: the IC50 stood at 7.2 nM in data set [1] and 15 nM in data set [2]. Moreover, in the data set with mice, the death result is reported as “no death”.
For the compound `COC(=O)N1CC(n2cc(C(=O)Nc3c(Cl)cncc3Cl)c(=O)c3cccnc32)C1` [Example 34, N-(3,5-dichloropyridin-4-yl)-1-(1-methoxycarbonylazetidin-3-yl)-1,4-dihydro[1,8]naphthylidin-4-one-3-carboxamide], the concentration for half-maximal inhibition (IC50) worked out at 24 nM in data set [1] and 80 nM in data set [2]. In the data set with mice, the death result was “no death”.
The corresponding values for `COC(=O)N1CC[C@H](n2cc(C(=O)Nc3c(Cl)cncc3Cl)c(=O)c3cccnc32)C1` [Example 11, (S)-N-(3,5-dichloropyridin-4-yl)-1-(1-methoxycarbonylpyrrolidin-3-yl)-1,4-dihydro[1,8]naphthyridin-4-one-3-carboxamide] are 1.7 nM, 4 nM and “no death”.
The corresponding values for `O=C(Nc1c(Cl)cncc1Cl)c1cn(C2CCN(C(=O)OCc3ccccc3)CC2)c2ncccc2c1=O` [Example 25, N-(3,5-dichloropyridin-4-yl)-1-(1-benzyloxycarbonylpiperidin-4-yl)-1,4-dihydro[1,8]naphthylidin-4-one-3-carboxamide] are 0.9 nM, 0.4 nM and “no death”.
The corresponding values for `O=C(Nc1c(Cl)cncc1Cl)c1cn([C@H]2CCN(C(=O)OCc3ccccc3)C2)c2ncccc2c1=O` [Example 10, (S)-N-(3,5-dichloropyridin-4-yl)-1-(1-benzyloxycarbonylpyrrolidin-3-yl)-1,4-dihydro[1,8]naphthyridin-4-one-3-carboxamide] are 1.5 nM, 10 nM and “no death”.
Turning to `O=C(Nc1c(Cl)cncc1Cl)c1cn([C@H]2C[C@H]3COC(=O)N3C2)c2ncccc2c1=O` [Example 86, N-(3,5-dichloropyridine-4-yl)-1-[(5S,7S)-1-aza-3-oxabicyclo[3,3,0]octan-2-one-7-yl]-1,4-dihydro[1,8]naphthylidin-4-one-3-carboxamide], the half-maximal inhibitory concentration (IC50) in data set [1] amounted to 140 nM; in data set [2] it was 3000 nM.
As to `O=C1CCC(n2cc(C(=O)Nc3c(Cl)cncc3Cl)c(=O)c3cccnc32)CC1` [Example 120, N-(3,5-dichloropyridin-4-yl)-1-(4-oxocyclohexyl)-1,4-dihydro[1,8]naphthylidin-4-one-3-carboxamide], the IC50 in data set [1] was determined as 2.7 nM; in data set [2], 0.7 nM. Further, in the data set on mice, the death entry was “no death”.
Consider `COC(=O)N1CC[C@@H](n2cc(C(=O)Nc3c(Cl)cccc3Cl)c(=O)c3cccnc32)C1` [Example 16, (R)-N-(2,6-dichlorophenyl)-1-(1-methoxycarbonylpyrrolidin-3-yl)-1,4-dihydro[1,8]naphthyridin-4-one-3-carboxamide], for which the IC50 was 54 nM in data set [1] and 300 nM in data set [2].
Take `COC(=O)N1CCN(n2cc(C(=O)Nc3c(Cl)cncc3Cl)c(=O)c3cccnc32)CC1` [Example 56, N-(3,5-dichloropyridin-4-yl)-1-(4-methoxycarbonylpiperazin-1-yl)-1,4-dihydro[1,8]naphthylidin-4-one-3-carboxamide]: the values for the IC50 in data set [1] and in data set [2] were 1.6 nM and 15 nM, respectively. In addition, the death result in the data set with mice is given as “no death”.
Turning to `O=C(O)CN1CCC(n2cc(C(=O)Nc3c(Cl)cncc3Cl)c(=O)c3cccnc32)CC1` [Example 50], the IC50 was 100 nM in data set [1] and 7000 nM in data set [2].
In the same order, the values of `CCn1cc(C(=O)NCCc2ccncc2)c(=O)c2ccc(C)nc21` [Comp. Ex., N-(2-(4-pyridyl)ethyl)-1-ethyl-7-methyl-1,8-naphthyridin-1,4-dihydro-4-one-3-carboxyamide, reference compound] are 5200 nM and 10000 nM.
The corresponding values for `CO[C@H]1CC[C@H](n2cc(C(=O)Nc3ccncc3)c(=O)c3cccnc32)CC1` [Example 126, N-(4-pyridyl)-1-(trans-4-methoxycyclohexyl)-1,4-dihydro[1,8]naphthylidin-4-one-3-carboxamide] are 720 nM and 1800 nM.
The corresponding values for `O=C1CCC(n2cc(C(=O)Nc3ccncc3Cl)c(=O)c3cccnc32)CC1` [Example 123, N-(3-chloropyridin-4-yl)-1-(4-oxocyclohexyl)-1,4-dihydro[1,8]naphthylidin-4-one-3-carboxamide] are 390 nM and 1200 nM.
Take `O=C(Nc1ccncc1Cl)c1cn([C@H]2CC[C@H](O)CC2)c2ncccc2c1=O` [Example 122, N-(3-chloropyridin-4-yl)-1-(trans-4-hydroxycyclohexyl)-1,4-dihydro[1,8]naphthylidin-4-one-3-carboxamide]: the IC50 in data set [1] is 200 nM; in data set [2], 1200 nM.
